Results on three compounds are retold here after publication PMC3775947 (Clinical lymphoma, myeloma & leukemia, 2013).

The structures appear in SMILES notation. Like-named read-outs stand apart in the source and are kept apart here.

Data set [1] can be described thus: Plasma pharmacokinetics of barasertib, barasertib-hQPA and LDAC. As to conditions: for AUC0–EOI, barasertib-hQPA / AUC0–t, barasertib-hQPA / Css, barasertib-hQPA: geometric mean (CV%).
For data set [2] the following is noted: human, in vivo.
The next data set relates to patients with AML. The settings on record: cited from earlier work; for Rates of response: LDAC or decitabine alone.
The mark [3] stands for this setting: plasma, barasertib 800 mg + LDAC 400 mg, n=6.
[4] abbreviates: plasma, barasertib 1000 mg + LDAC 400 mg, n=13.
Setting [5] is: plasma, barasertib 1200 mg + LDAC 400 mg, n=3.

`CCN(CCO)CCCOc1ccc2c(Nc3cc(CC(=O)Nc4cccc(F)c4)[nH]n3)ncnc2c1` [Barasertib-hQPA, barasertib hydroxy-QPA]: the “Steady-state plasma concentrations observed from, after start of infusion” value in data set [1] (7-day continuous iv infusion of barasertib, Day 1, maintained until EOI) came out at 24 h. In addition, the Accumulation entry in data set [1] (28-day cycles) is given as “Minimal accumulation”. For the same compound, the “Barasertib-hQPA exposure (AUC and Css) versus barasertib dose” value in data set [1] (800-1200 mg, trend, low patient numbers) is “increase more than proportionally”. Besides, the “Clearance rate, geometric mean” value in data set [1] (barasertib 1000 mg cohort, range 23.4–43.3) is reported as 30.5 L/h. For the same compound, the “Volume of distribution at steady state, geometric mean” value in data set [1] (barasertib 1000 mg cohort, range 509–1050) came to 713 L. Besides, in data set [1] (during 7-day infusion), the “Exposure to barasertib-hQPA during the infusion relative to that of barasertib” value is recorded as “approximately four-fold”. The “Terminal phase t½” value in data set [1] (following EOI, biphasic elimination) lay in the range of 84 to 108 h. Besides, the “Detected in samples post EOI up to and including” value in data set [1] (plasma, LLOQ 0.25 ng/mL) was not above 336 h. Further, in data set [1] (setting [3]), the “AUC0–EOI, barasertib-hQPA” value was 23240 (14.9) ng.h/mL; the “AUC0–t, barasertib-hQPA” value is 24040 (3.4) ng.h/mL; the “Css, barasertib-hQPA” value is given as 147.3 (13.9) ng/mL. Moreover, in data set [1] (setting [4]), the “AUC0–EOI, barasertib-hQPA” value is 26860 (29.8) ng.h/mL; the “AUC0–t, barasertib-hQPA” value is 32840 (23.1) ng.h/mL; the “Css, barasertib-hQPA” value is given as 170.2 (27.4) ng/mL. Also, in data set [1] (setting [5]), the “AUC0–EOI, barasertib-hQPA” value is reported as 37510 (26.6) ng.h/mL; the “AUC0–t, barasertib-hQPA” value is on record as 41850 (28.2) ng.h/mL; the “Css, barasertib-hQPA” value is given as 249.2 (21.0) ng/mL.
For the compound `Nc1ccn([C@@H]2O[C@H](CO)[C@@H](O)[C@@H]2O)c(=O)n1` [LDAC, cytosine arabinoside], the “AUC0–8 ratio, Day 7:Day10, LDAC” value in data set [2] (800 mg) is on record as 1.1 (14.6) ng.h/mL; in data set [2] (1000 mg) it was 1.2 (24.2) ng.h/mL; in data set [2] (1200 mg), 0.79 (105.7) ng.h/mL. Also, the “Time of peak plasma concentrations (Cmax) post administration” value in data set [2] (sc, 20 mg) was in the range of 0.25 to 1 h. Moreover, in data set [2] (sc, 20 mg), the “t½, monophasic elimination” value was 1 to 2 h. In addition, the Infection frequency with patients with AML (LDAC monotherapy) was 45%. In the data set on patients with AML, the Rates of response was approximately 20%.
Take `Nc1ncn([C@H]2C[C@H](O)[C@@H](CO)O2)c(=O)n1` [decitabine]: the Rates of response in the data set with patients with AML is on record as approximately 20%.
